Laboratory results published in PubChem BioAssay AID1996.
≈ marks a conversion by molar mass, not a printed value.

details: buffer; pH 7.4; 200.0 µM

Row | Structure (SMILES) | solubility kinetic [µg/mL]
1 | Cc1nc(C(=O)NCC(=O)c2ccccc2)c(C(F)(F)F)o1 | > 46.8
2 | CC(C#N)Sc1ccc(S(=O)(=O)N2CCCCC2)cn1 (centres undefined) | 9.4 (≈ 30.2 µM)
3 | O=C1CCCC(O)=C1N=Nc1ccc(C(=O)O)cc1 | > 39
4 | Cc1cc2ccccn2c1C(=O)c1ccc([N+](=O)[O-])o1 | 1.3 (≈ 4.81 µM)
5 | COc1ccc2cc(C3OCCO3)c(Cl)nc2c1 | 32.1 (≈ 121 µM)
6 | Cc1ccc(N2CC(C(=O)NCCN3CCOCC3)CC2=O)cc1C (centres undefined) | > 51.8
7 | CC(=O)Cc1nsc(Nc2ccc(C)cc2)n1 | 35.9 (≈ 145 µM)
8 | Cl.OCCN(CC#CC(O)(c1ccccc1)C1CCCCC1)CCO (centres undefined) | 53
9 | C=CCn1c(SCC(=O)Nc2cccc(S(N)(=O)=O)c2)nc2sc(C)c(C)c2c1=O | 3 (≈ 6.46 µM)
10 | COC(=O)c1ccc2nc(NC(=O)C3CC3)sc2c1 | 4.1 (≈ 14.8 µM)
11 | COc1ccc(NC(=O)CN(C)C(=O)C2(c3ccccc3)CCCC2)cc1 | > 55
12 | CCc1ccc(NCc2ccc(OC)c(Cn3ccnc3)c2)cc1 | 40.2 (≈ 125 µM)
13 | CCc1cc(=O)oc2cc(OCC(=O)N3CC[C@@]4(O)CCCC[C@H]4C3)ccc12 | > 57.8
14 | Cn1c(=O)c2nc(-c3ccccc3)c(-c3ccccc3)nc2n(C)c1=O | 0.9 (≈ 2.61 µM)
15 | Cc1ccc(S(=O)(=O)Nc2ccsc2C#N)cc1 | > 41.8
16 | COc1ccc(NC(=S)N2CCC(c3ccc(C)cc3)C2)cc1 (centres undefined) | 0.6 (≈ 1.84 µM)
17 | CCCc1cnc(N2CCN(S(C)(=O)=O)CC2)nc1 | > 42.7
18 | CCCCn1c(O)c(C=NCc2ccc3c(c2)OCO3)c(=O)[nH]c1=O | 6.8 (≈ 19.7 µM)
19 | CCc1ccc(N2CC(C(=O)NCCC3=CCCCC3)CC2=O)cc1 (centres undefined) | 6.8 (≈ 20 µM)
20 | O=C(OCc1ccc(Cl)c(Cl)c1)c1ccc[nH]1 | 1.9 (≈ 7.03 µM)

Row | Structure (SMILES) | solubility kinetic [µg/mL]
21 | COc1ccc2c(c1OC)C(=O)N1C2SC[C@H]1C(=O)NC1CC1 (some centres undefined) | > 50.2
22 | CCN(Cc1nc(-c2ccc(C)cc2)no1)C(=O)c1ccco1 | 38.9 (≈ 125 µM)
23 | CC(C)[C@H](NC(=O)c1ccccc1Cl)C(=O)Nc1ccc(S(=O)(=O)Nc2nccs2)cc1 | 14.6 (≈ 29.6 µM)
24 | COc1cc(C(=O)N[C@H](C(=O)OCC(=O)NC2CCCCCC2)C(C)C)cc(OC)c1OC | > 69.7
25 | CC(=O)Nc1ccc(S(=O)(=O)N2CCN(c3ccc([N+](=O)[O-])cc3)CC2)cc1 | 0.4 (≈ 0.989 µM)
26 | COc1ccccc1Nc1ncnc2c1c(C)c(C)n2CCO | 15.4 (≈ 49.3 µM)
27 | COC(=O)C(C(C)C)N1CCc2c(C)nc3c(C#N)cnn3c21 (centres undefined) | > 47
28 | O=C(NC12CC3CC(CC(C3)C1)C2)c1ccco1 | 36.5 (≈ 149 µM)
29 | Nc1cccnc1Oc1ccccc1F | > 30.6
30 | CC1(c2ccccc2Cl)NC(=O)N(CC(=O)N2CCc3ccccc32)C1=O (centres undefined) | 10.1 (≈ 26.3 µM)
31 | COC(=O)NC(C)N1C(=O)C2C3C=CC(C3)C2C1=O (centres undefined) | > 39.6
32 | FC(F)(F)c1cnc(COc2ccc(Cl)cc2Cl)c(Cl)c1 | < 0.8
33 | CCc1ccc2[nH]c(C(=O)N(C)c3ccc(F)cc3F)cc2c1 | 1.7 (≈ 5.41 µM)
34 | Cc1cc(NC(=O)CS(=O)(=O)c2ccc(Cl)cc2)no1 | 14.4 (≈ 45.8 µM)
35 | CN(C)/C=N/c1ncc(C(=O)OC(C)(C)C)s1 | > 38.3
36 | O=C(NC1=NCCS1)c1ccc(C(F)(F)F)cc1 | 6.1 (≈ 22.2 µM)
37 | Cc1ccccc1NC(=O)CON=C(N)c1ccccc1 | > 42.5
38 | CC(=O)c1cccc(S(=O)(=O)Nc2c(C)nn(C)c2C)c1 | > 46.1
39 | CC1(C)C2CCC(C2)C1(C)NC(=O)C[N+](C)(C)C.[Cl-] (centres undefined) | 43.2
40 | CN1CCN(c2nnc(-c3ccc(F)cc3)c3ccccc23)CC1 | > 48.4

Row | Structure (SMILES) | solubility kinetic [µg/mL]
41 | O=C(CCCCl)Nc1nc(-c2ccc3c(c2)OCCO3)cs1 | 1.1 (≈ 3.25 µM)
42 | O=C(NC(=O)c1ccc(Cl)cc1)Nc1ccc(-c2cnco2)cc1 | 2.7 (≈ 7.9 µM)
43 | Cc1ccc(OCCCCCN2CCOCC2)cc1 | 32.3 (≈ 123 µM)
44 | CCN(C(=O)CSc1ccccn1)C1CCCCC1 | > 41.8
45 | CCOC(=O)C1CCN(C(=O)COC(=O)CNC(=O)c2ccc(C(C)(C)C)cc2)CC1 | > 64.9
46 | CCOC(=O)c1c(N)sc2c1CCCC2=O | 34.7 (≈ 145 µM)
47 | C[N+]1(C)[C@@H]2CC[C@H]1CC(OC(=O)C(CO)c1ccccc1)C2.O=[N+]([O-])[O-] (some centres undefined) | > 55
48 | O=C(c1ccccc1)c1ccccc1N=Cc1c(O)[nH]c(=O)[nH]c1=O | 3.8 (≈ 11.3 µM)
49 | CC1C(=O)Nc2ccccc2N1C(=O)c1ccc(Cl)c(Cl)c1 (centres undefined) | 36.2 (≈ 108 µM)
50 | CC(=NCc1ccco1)c1c(O)n(-c2ccc(C)cc2)c(=O)[nH]c1=O | 12.5 (≈ 36.8 µM)
51 | C#CCOn1c(-n2nc(C)cc2C)nc2ccccc2c1=O | > 44.1
52 | O=C(Nc1ccc(S(=O)(=O)N2CCCCC2)cc1)c1ccco1 | 46.2 (≈ 138 µM)
53 | CC1c2cc3c(cc2CCN1CC(=O)Nc1ccccc1)OCCCO3 (centres undefined) | 3.9 (≈ 11.1 µM)
54 | CC1=CCC(C(=O)O)C(C(=O)Nc2cccnc2)C1 (centres undefined) | 33.3 (≈ 128 µM)
55 | CCOc1ccc(-c2nc(N)ncc2Oc2ccc(OC)cc2)c(O)c1 | 1 (≈ 2.83 µM)
56 | COc1ccc(CCNC(=O)c2cc(C)oc2C)cc1 | > 41
57 | Cc1cc(C)cc(NC(=S)NCc2ccncc2)c1 | 20.6 (≈ 75.9 µM)
58 | Cc1cccc(Oc2nc3c(c(=O)n(C)c(=O)n3C)n2C)c1 | > 45
59 | Cc1cc(NS(=O)(=O)c2cc(Cl)sc2Cl)no1 | > 47
